Results published in PubChem BioAssay AID1259407 (Chemical Carcinogenesis Research Information System (CCRIS), 2018).
Calls of active or inactive are those of the source. No rule for the calls is given here.

Tested on: CCRIS mutagenicity, Ames/micronucleus/aberration tests
Assay: CCRIS mutagenicity studies
[1] = Test System: AMES SALMONELLA TYPHIMURIUM, Strain/Indicator: TA98, Metabolic Activation: NONE, Method: STANDARD PLATE
[2] = Test System: AMES SALMONELLA TYPHIMURIUM, Strain/Indicator: TA97, Metabolic Activation: NONE, Method: STANDARD PLATE
[3] = Test System: AMES SALMONELLA TYPHIMURIUM, Strain/Indicator: TA100, Metabolic Activation: NONE, Method: STANDARD PLATE

**Q.** Which mutagenic call (Test System: AMES SALMONELLA TYPHIMURIUM, Strain/Indicator: TA98(1,8-DNP6), Metabolic Activation: NONE, Method: STANDARD PLATE) does the source give for `O=[N+]([O-])c1ccc2c3c4c(cccc4c4ccccc4c13)[C@H](O)[C@H]2O` here?
**A.** active; positive

**Q.** What about the mutagenic call (Test System: AMES SALMONELLA TYPHIMURIUM, Strain/Indicator: TA98(1,8-DNP6), Metabolic Activation: RAT, LIVER, S-9, AROCLOR 1254, Method: STANDARD PLATE) of the same compound?
**A.** active; positive

**Q.** What about the mutagenic call (Test System: AMES SALMONELLA TYPHIMURIUM, Strain/Indicator: TA98(NR), Metabolic Activation: NONE, Method: STANDARD PLATE) of the same compound?
**A.** active; positive

**Q.** And the mutagenic call (Test System: AMES SALMONELLA TYPHIMURIUM, Strain/Indicator: TA98(NR), Metabolic Activation: RAT, LIVER, S-9, AROCLOR 1254, Method: STANDARD PLATE)?
**A.** active; positive

**Q.** What about the mutagenic call [1] of the same compound?
**A.** active; positive

**Q.** And the mutagenic call (Test System: AMES SALMONELLA TYPHIMURIUM, Strain/Indicator: TA98, Metabolic Activation: RAT, LIVER, S-9, AROCLOR 1254, Method: STANDARD PLATE)?
**A.** active; positive

**Q.** Which mutagenic call [2] does the source give for `CCOC(=O)CNC(=O)CCCCSc1ncnc2nc[nH]c12` here?
**A.** inactive; negative

**Q.** And the mutagenic call (Test System: AMES SALMONELLA TYPHIMURIUM, Strain/Indicator: TA97, Metabolic Activation: RAT, LIVER, S-9, PHENOBARBITAL AND ALPHA-NAPHTHOFLAVONE, Method: STANDARD PLATE)?
**A.** inactive; negative

**Q.** What about the mutagenic call [1] of the same compound?
**A.** inactive; negative

**Q.** What about the mutagenic call (Test System: AMES SALMONELLA TYPHIMURIUM, Strain/Indicator: TA98, Metabolic Activation: RAT, LIVER, S-9, PHENOBARBITAL AND ALPHA-NAPHTHOFLAVONE, Method: STANDARD PLATE) of the same compound?
**A.** inactive; negative

**Q.** And the mutagenic call [3]?
**A.** inactive; negative

**Q.** And the mutagenic call (Test System: AMES SALMONELLA TYPHIMURIUM, Strain/Indicator: TA100, Metabolic Activation: RAT, LIVER, S-9, PHENOBARBITAL AND ALPHA-NAPHTHOFLAVONE, Method: STANDARD PLATE)?
**A.** inactive; negative

**Q.** What about the mutagenic call (Test System: AMES SALMONELLA TYPHIMURIUM, Strain/Indicator: TA1535, Metabolic Activation: NONE, Method: STANDARD PLATE) of the same compound?
**A.** inactive; negative

**Q.** And the mutagenic call (Test System: AMES SALMONELLA TYPHIMURIUM, Strain/Indicator: TA1535, Metabolic Activation: RAT, LIVER, S-9, PHENOBARBITAL AND ALPHA-NAPHTHOFLAVONE, Method: STANDARD PLATE)?
**A.** inactive; negative

**Q.** Which results are given for `CC(C)(OO)c1ccccc1`?
**A.** mutagenic call (Test System: AMES SALMONELLA TYPHIMURIUM, Strain/Indicator: TA97A, Metabolic Activation: RAT LIVER S-9, AROCLOR 1254, Method: PREINCUBATION): active; positive; mutagenic call (Test System: AMES SALMONELLA TYPHIMURIUM, Strain/Indicator: TA98, Metabolic Activation: NONE, Method: FLUCTUATION (MICROTITER)): active; positive; mutagenic call (Test System: AMES SALMONELLA TYPHIMURIUM, Strain/Indicator: TA98, Metabolic Activation: RAT LIVER S-9, AROCLOR 1254, Method: FLUCTUATION (MICROTITER)): inactive; negative; mutagenic call (Test System: AMES SALMONELLA TYPHIMURIUM, Strain/Indicator: TA104, Metabolic Activation: RAT LIVER S-9, AROCLOR 1254, Method: PREINCUBATION): active; positive; mutagenic call (Test System: AMES SALMONELLA TYPHIMURIUM, Strain/Indicator: TA1537, Metabolic Activation: NONE, Method: FLUCTUATION (MICROTITER)): active; positive; mutagenic call (Test System: AMES SALMONELLA TYPHIMURIUM, Strain/Indicator: TA1537, Metabolic Activation: RAT LIVER S-9, AROCLOR 1254, Method: FLUCTUATION (MICROTITER): active; positive; mutagenic call (Test System: AMES SALMONELLA TYPHIMURIUM, Strain/Indicator: TA2638A, Metabolic Activation: NONE, Method: STANDARD PLATE): active; positive; mutagenic call (Test System: AMES SALMONELLA TYPHIMURIUM, Strain/Indicator: TA7001, Metabolic Activation: NONE, Method: FLUCTUATION (MICROTITER)): inactive; negative; mutagenic call (Test System: AMES SALMONELLA TYPHIMURIUM, Strain/Indicator: TA7001, Metabolic Activation: RAT LIVER S-9, AROCLOR 1254, Method: FLUCTUATION (MICROTITER)): active; positive; mutagenic call (Test System: AMES SALMONELLA TYPHIMURIUM, Strain/Indicator: TA7002, Metabolic Activation: NONE, Method: FLUCTUATION (MICROTITER)): active; positive; mutagenic call (Test System: AMES SALMONELLA TYPHIMURIUM, Strain/Indicator: TA7002, Metabolic Activation: RAT LIVER S-9, AROCLOR 1254, Method: FLUCTUATION (MICROTITER)): inactive; negative; mutagenic call (Test System: AMES SALMONELLA TYPHIMURIUM, Strain/Indicator: TA7003, Metabolic Activation: NONE, Method: FLUCTUATION (MICROTITER)): inactive; negative; mutagenic call (Test System: AMES SALMONELLA TYPHIMURIUM, Strain/Indicator: TA7003, Metabolic Activation: RAT LIVER S-9, AROCLOR 1254, Method: FLUCTUATION (MICROTITER)): inactive; negative; mutagenic call (Test System: AMES SALMONELLA TYPHIMURIUM, Strain/Indicator: TA7004, Metabolic Activation: NONE, Method: FLUCTUATION (MICROTITER)): active; positive; mutagenic call (Test System: AMES SALMONELLA TYPHIMURIUM, Strain/Indicator: TA7004, Metabolic Activation: RAT LIVER S-9, AROCLOR 1254, Method: FLUCTUATION (MICROTITER)): active; positive; mutagenic call (Test System: AMES SALMONELLA TYPHIMURIUM, Strain/Indicator: TA7005, Metabolic Activation: NONE, Method: FLUCTUATION (MICROTITER)): active; positive; mutagenic call (Test System: AMES SALMONELLA TYPHIMURIUM, Strain/Indicator: TA7005, Metabolic Activation: RAT LIVER S-9, AROCLOR 1254, Method: FLUCTUATION (MICROTITER)): active; positive; mutagenic call (Test System: AMES SALMONELLA TYPHIMURIUM, Strain/Indicator: TA7006, Metabolic Activation: NONE, Method: FLUCTUATION (MICROTITER)): active; positive; mutagenic call (Test System: AMES SALMONELLA TYPHIMURIUM, Strain/Indicator: TA7006, Metabolic Activation: RAT LIVER S-9, AROCLOR 1254, Method: FLUCTUATION (MICROTITER)): active; positive; mutagenic call (Test System: E. COLI, Strain/Indicator: WP2 (PKM101), Metabolic Activation: NONE, Method: STANDARD PLATE): active; positive; mutagenic call (Test System: E. COLI, Strain/Indicator: WP2 UVRA (PKM101), Metabolic Activation: NONE, Method: STANDARD PLATE): active; positive

**Q.** What does the source list for `CC1(C)CCC[C@]2(C)[C@H]3CC=C(C=O)[C@@H](C=O)[C@]3(C)CC[C@@H]12`?
**A.** mutagenic call [1]: inactive; negative; mutagenic call [3]: inactive; negative; mutagenic call (Test System: AMES SALMONELLA TYPHIMURIUM, Strain/Indicator: TA2637, Metabolic Activation: NONE, Method: STANDARD PLATE): inactive; negative

**Q.** Which mutagenic call [2] does the source give for `O=C1C=Cc2ccc3c4c(ccc1c24)C=CC3=O` here?
**A.** active; positive

**Q.** And the mutagenic call (Test System: AMES SALMONELLA TYPHIMURIUM, Strain/Indicator: TA97, Metabolic Activation: RAT, LIVER, S-9, PCB, Method: STANDARD PLATE)?
**A.** active; positive

**Q.** And the mutagenic call [1]?
**A.** inactive; negative

**Q.** What about the mutagenic call (Test System: AMES SALMONELLA TYPHIMURIUM, Strain/Indicator: TA98, Metabolic Activation: RAT, LIVER, S-9, PCB, Method: STANDARD PLATE) of the same compound?
**A.** inactive; negative

**Q.** What about the mutagenic call [3] of the same compound?
**A.** inactive; negative

**Q.** What about the mutagenic call (Test System: AMES SALMONELLA TYPHIMURIUM, Strain/Indicator: TA100, Metabolic Activation: RAT, LIVER, S-9, PCB, Method: STANDARD PLATE) of the same compound?
**A.** inactive; negative
